Test results as given in ChEMBL document CHEMBL3885881, “DrugMatrix”.

Species: Rattus norvegicus
Assay: DrugMatrix - Regimen: Daily Repeat
Format: toxicity, organism-based, Sprague-Dawley
Parameters: regimen Daily Repeat, gender Male, age 6-8 weeks
Conditions: in vivo, po, route oral GAVAGE, vehicle .5 % CMC; for ABSOLUTE BASOPHIL / ABSOLUTE EOSINOPHIL / ABSOLUTE LYMPHOCYTE / ABSOLUTE MONOCYTE / ABSOLUTE SEGMENTED NEUTROPHIL / BASOPHIL / EOSINOPHIL / ERYTHROCYTE COUNT / HEMATOCRIT / HEMOGLOBIN / LEUKOCYTE COUNT / LYMPHOCYTE / MEAN CORPUSCULAR HEMOGLOBIN / MEAN CORPUSCULAR HEMOGLOBIN CONCENTRATION / MONOCYTE / NEUTROPHIL / NUCLEATED RED BLOOD CELLS / PLATELET COUNT: tissue Blood; for ALANINE AMINOTRANSFERASE / ALBUMIN / ALKALINE PHOSPHATASE / ASPARTATE AMINOTRANSFERASE / BLOOD UREA NITROGEN / CARBON DIOXIDE / CHLORIDE / CHOLESTEROL / CREATINE PHOSPHOKINASE / CREATININE / GLUCOSE / LACTATE DEHYDROGENASE / LIPASE / PHOSPHORUS / POTASSIUM / SODIUM / TOTAL BILIRUBIN / TOTAL PROTEIN / URIC ACID: tissue Plasma
[1] = 0 mg/kg, 72 h, dose level Control, time 3 day
[2] = 0 mg/kg, 120 h, dose level Control, time 5 day
[3] = 10 mg/kg, 72 h, dose level Low, time 3 day

SMILES: O=C1C(CC[S+]([O-])c2ccccc2)C(=O)N(c2ccccc2)N1c1ccccc1 (stereo not given) [SULFINPYRAZONE]
- ABSOLUTE BASOPHIL [1]: 0 CELLS/uL
- ABSOLUTE EOSINOPHIL [1]: 171.33 CELLS/uL
- ABSOLUTE LYMPHOCYTE [1]: 13776.5 CELLS/uL
- ABSOLUTE MONOCYTE [1]: 180.83 CELLS/uL
- ABSOLUTE SEGMENTED NEUTROPHIL [1]: 1121.33 CELLS/uL
- BASOPHIL [1]: 0%
- EOSINOPHIL [1]: 1%
- ERYTHROCYTE COUNT [1]: 5.56 x10E6/uL
- HEMATOCRIT [1]: 34.75%
- HEMOGLOBIN [1]: 13.68 G/DL
- LEUKOCYTE COUNT [1]: 15.25 x10E3/uL
- LYMPHOCYTE [1]: 90.17%
- MEAN CORPUSCULAR HEMOGLOBIN [1]: 24.6 pg
- MEAN CORPUSCULAR HEMOGLOBIN CONCENTRATION [1]: 39.4 G/DL
- MONOCYTE [1]: 1.17%
- NEUTROPHIL [1]: 7.67%
- NUCLEATED RED BLOOD CELLS [1]: 0 /100WBC
- PLATELET COUNT [1]: 1342 x10E3/uL
- ALANINE AMINOTRANSFERASE [1]: 49.67 u/L
- ALBUMIN [1]: 4.15 G/DL
- ALKALINE PHOSPHATASE [1]: 346.83 u/L
- ASPARTATE AMINOTRANSFERASE [1]: 108.17 u/L
- BLOOD UREA NITROGEN [1]: 17.33 mg/dL
- CARBON DIOXIDE [1]: 25 mmol/L
- CHLORIDE [1]: 100.83 MEQ/L
- CHOLESTEROL [1]: 66.83 mg/dL
- CREATINE PHOSPHOKINASE [1]: 788 u/L
- CREATININE [1]: 0.18 mg/dL
- GLUCOSE [1]: 151.67 mg/dL
- LACTATE DEHYDROGENASE [1]: 982.5 u/L
- LIPASE [1]: 10.33 u/L
- PHOSPHORUS [1]: 11.23 mg/dL
- POTASSIUM [1]: 6.37 MEQ/L
- SODIUM [1]: 141.02 MEQ/L
- TOTAL BILIRUBIN [1]: 0.18 mg/dL
- TOTAL PROTEIN [1]: 5.9 G/DL
- URIC ACID [1]: 1.8 mg/dL
- ABSOLUTE BASOPHIL [2]: 0 CELLS/uL
- ABSOLUTE EOSINOPHIL [2]: 69 CELLS/uL
- ABSOLUTE LYMPHOCYTE [2]: 13632.83 CELLS/uL
- ABSOLUTE MONOCYTE [2]: 139.83 CELLS/uL
- ABSOLUTE SEGMENTED NEUTROPHIL [2]: 1225 CELLS/uL
- BASOPHIL [2]: 0%
- EOSINOPHIL [2]: 0.33%
- ERYTHROCYTE COUNT [2]: 5.52 x10E6/uL
- HEMATOCRIT [2]: 33.98%
- HEMOGLOBIN [2]: 13.22 G/DL
- LEUKOCYTE COUNT [2]: 15.07 x10E3/uL
- LYMPHOCYTE [2]: 90.83%
- MEAN CORPUSCULAR HEMOGLOBIN [2]: 23.95 pg
- MEAN CORPUSCULAR HEMOGLOBIN CONCENTRATION [2]: 38.9 G/DL
- MONOCYTE [2]: 0.83%
- NEUTROPHIL [2]: 8%
- NUCLEATED RED BLOOD CELLS [2]: 0 /100WBC
- PLATELET COUNT [2]: 1196 x10E3/uL
- ALANINE AMINOTRANSFERASE [2]: 49.17 u/L
- ALBUMIN [2]: 4.2 G/DL
- ALKALINE PHOSPHATASE [2]: 352.33 u/L
- ASPARTATE AMINOTRANSFERASE [2]: 89.67 u/L
- BLOOD UREA NITROGEN [2]: 18 mg/dL
- CARBON DIOXIDE [2]: 27.67 mmol/L
- CHLORIDE [2]: 101 MEQ/L
- CHOLESTEROL [2]: 72.83 mg/dL
- CREATINE PHOSPHOKINASE [2]: 417.5 u/L
- CREATININE [2]: 0.18 mg/dL
- GLUCOSE [2]: 150.5 mg/dL
- LACTATE DEHYDROGENASE [2]: 517.33 u/L
- LIPASE [2]: 9 u/L
- PHOSPHORUS [2]: 11.87 mg/dL
- POTASSIUM [2]: 6.57 MEQ/L
- SODIUM [2]: 143.62 MEQ/L
- TOTAL BILIRUBIN [2]: 0.2 mg/dL
- TOTAL PROTEIN [2]: 6.08 G/DL
- URIC ACID [2]: 1.45 mg/dL
- ABSOLUTE BASOPHIL [3]: 0 CELLS/uL
- ABSOLUTE EOSINOPHIL [3]: 153.67 CELLS/uL
- ABSOLUTE LYMPHOCYTE [3]: 13327.33 CELLS/uL
- ABSOLUTE MONOCYTE [3]: 157.33 CELLS/uL
- ABSOLUTE SEGMENTED NEUTROPHIL [3]: 995 CELLS/uL
- BASOPHIL [3]: 0%
- EOSINOPHIL [3]: 1%
- ERYTHROCYTE COUNT [3]: 5.31 x10E6/uL
- HEMATOCRIT [3]: 34.03%
- HEMOGLOBIN [3]: 13.67 G/DL
- LEUKOCYTE COUNT [3]: 14.63 x10E3/uL
- LYMPHOCYTE [3]: 91%
- MEAN CORPUSCULAR HEMOGLOBIN [3]: 25.73 pg
- MEAN CORPUSCULAR HEMOGLOBIN CONCENTRATION [3]: 40.17 G/DL
- MONOCYTE [3]: 1%
- NEUTROPHIL [3]: 7%
- NUCLEATED RED BLOOD CELLS [3]: 0 /100WBC
- PLATELET COUNT [3]: 1352.33 x10E3/uL
- ALANINE AMINOTRANSFERASE [3]: 52.33 u/L
- ALBUMIN [3]: 4.23 G/DL
- ALKALINE PHOSPHATASE [3]: 353.33 u/L
- ASPARTATE AMINOTRANSFERASE [3]: 105.67 u/L
- BLOOD UREA NITROGEN [3]: 15.33 mg/dL
- CARBON DIOXIDE [3]: 25.67 mmol/L
- CHLORIDE [3]: 100.33 MEQ/L
- CHOLESTEROL [3]: 80.33 mg/dL
- CREATINE PHOSPHOKINASE [3]: 490.67 u/L
- CREATININE [3]: 0.21 mg/dL
- GLUCOSE [3]: 150.33 mg/dL
- LACTATE DEHYDROGENASE [3]: 722 u/L
- LIPASE [3]: 10.33 u/L
- PHOSPHORUS [3]: 12.1 mg/dL
- POTASSIUM [3]: 6.22 MEQ/L
- SODIUM [3]: 143.2 MEQ/L
- TOTAL BILIRUBIN [3]: 0.2 mg/dL
- TOTAL PROTEIN [3]: 6.03 G/DL
